Data from PMC9960930, “Saponin and Fatty Acid Profiling of the Sea Cucumber Holothuria atra, α-Glucosidase Inhibitory Activity and the Identification of a Novel Triterpene Glycoside” (Nutrients, 2023).
≈ marks a conversion by molar mass, not a printed value. Like-named read-outs stand apart in the source and are kept apart here. Values belong to the compound of their own block, whether it stands above or below them.

Key:
[1] = biological target: α-glucosidase; design: method as in PMID 25735900; details: cited from earlier work; for IC50: purified from S. japonicas, read-out: IC50 against α-glucosidase; for α-glucosidase inhibitory activity: purified from internal organs of S. japonicus
[2] = biological target: α-glucosidase; design: method as in PMID 22416705; details: cited from earlier work; for IC50 against α-glucosidase: fatty acids from body wall of S. japonicus; for α-glucosidase inhibitory activity: purified from body wall of S. japonicus
[3] = biological target: α-glucosidase; design: method as in PMID 23355366; details: read-out: IC50 against α-glucosidase; cited from earlier work
[4] = biological target: α-glucosidase from Saccharomyces cerevisiae; experiment: α-glucosidase inhibition assay (PNPG substrate); assay type: biochemical; details: commercial pure fatty acids; acarbose positive control; three repeats; read-out: IC50 against α-glucosidase
Description: The reference standard for the GC-MS analysis was a Supelco 37 Component FAME mix from Sigma Aldrich (Sigma-Aldrich Chemie GmbH, Steinheim, Germany). Pure fatty acids, including palmitoleic acid (≥98.5%), arachidonic acid, and eicosapentaenoic acid (≥99%), were purchased from Sigma Aldrich (Sigma-Aldrich Chemie GmbH, Steinheim, Germany).
The α-glucosidase inhibition was assessed using the method described by Su et al. (2013 and Trinh et al. (2016), with a slight modification. In total, 100 μL of the α-glucosidase enzyme solution from Saccharomyces cerevisiae (0.2 U/mL in a 0.1 M phosphate buffer at pH 6.8) and 50 μL of the sample dissolved in the phosphate buffer containing 6% DMSO 0.25–20 mg/mL), and were incubated in a transparent 96-well plate at 37 °C for 15 min. Next, 50 μL of PNPG (5 mM in a 0.1 m phosphate buffer) was added. The PNPG was hydrolyzed to release p-nitrophenyl (PNP), and this process was monitored at 405 nm for 30 min at 37 °C, with a BioTek Eon microplate reader (Winooski, VT, USA)) using the Gen5 version 2.06 software. […] The IC50 values were calculated with GraphPad Prism 6 software (GraphPad Software Inc, La Jolla, CA, USA). The IC50 values were subjected to one-way analysis of variance (ANOVA) and the Tukey post hoc test, using GraphPad Prism 6 software to assess any significant differences among the treatments. P-values < 0.05 were considered significant.

[5] = solubility in NMR solvent; details: noticed when preparing the compounds for NMR analysis
[6] = system: diabetic mice; design: method as in PMID 26932154; details: treatment of diabetic mice; cited from earlier work
[7] = system: α-glucosidase; design: method as in PMID 26932154; details: cited from earlier work

SMILES: CCCCCC/C=C\CCCCCCCC(=O)OCC(O)COC(=O)CCCCCCC/C=C\CCCCCC [1,3-Dipalmitolein]
IC50 [1]: 4.45 µM | α-glucosidase inhibitory activity [1]: strong

SMILES: CCCCCCC/C=C\C/C=C\CCCCCC(=O)O [7(Z),10(Z)-octadecadienoic acid]
IC50 against α-glucosidase [2]: 0.49 ± 0.05 µg/mL (≈ 1.75 µM) | α-glucosidase inhibitory activity [2]: strong

SMILES: CCCCCCCCCC/C=C\CCCCCC(=O)O [7(Z)-octadecenoic acid]
IC50 against α-glucosidase [2]: 0.51 ± 0.02 µg/mL (≈ 1.81 µM) | α-glucosidase inhibitory activity [2]: strong

IC50 [4]: 596 ± 44 µM
SMILES: CCCCC/C=C\C/C=C\C/C=C\C/C=C\CCCC(=O)O [Arachidonic acid]
IC50 [3]: 211 ± 2 µM

IC50 [4]: 541 ± 39 µM
SMILES: CC/C=C\C/C=C\C/C=C\C/C=C\C/C=C\CCCC(=O)O [Eicosapentaenoic acid]

IC50 [4]: 320 ± 32 µM
SMILES: CCCCCC/C=C\CCCCCCCC(=O)O [Palmitoleic acid]
IC50 [3]: 265 ± 2 µM

SMILES: CCCCCCCC/C=C\CCCCCCCC(=O)O [cis-9-octadecenoic acid]
IC50 [1]: 14.9 µM | α-glucosidase inhibitory activity [1]: strong

SMILES: CC1OC(OC2C(OC3CCC4(C)C5=CC(O)C67C(=O)OC(C)(C8CCC(C)(C)O8)C6(O)CCC7(C)C5CCC4C3(C)C)OCC(O)C2O)C(O)C(O)C1O (stereo not drawn) [compound 1, desholothurin B]
solubility in methanol-d4 [5]: soluble

SMILES: COC1C(O)C(CO)OC(OC2C(O)C(CO)OC(OC3C(C)OC(OC4C(OC5CCC6(C)C7=CC(O)C89C(=O)OC(C)(CCCC(C)C)C8(O)CCC9(C)C7CCC6C5(C)C)OCC(OS(=O)(=O)O)C4O)C(O)C3O)C2O)C1O.[Na+] (stereo not drawn) [echinoside A]
postprandial blood glucose levels [6]: suppressed postprandial blood glucose levels | α-glucosidase activity [7]: inhibited

SMILES: CO[C@@H]1[C@@H](O)[C@H](O[C@@H]2[C@@H](O)[C@H](O[C@H]3[C@H](O)[C@@H](O)[C@H](O[C@H]4[C@H](O[C@H]5CC[C@]6(C)C7=C[C@H](O)[C@@]89C(=O)O[C@@](C)(C%10CCC(C)(C)O%10)[C@@]8(O)CC[C@@]9(C)[C@@H]7CC[C@H]6C5(C)C)OC[C@@H](OS(=O)(=O)O)[C@@H]4O)O[C@@H]3C)O[C@H](CO)[C@H]2O)O[C@H](CO)[C@H]1O (stereo partly drawn) [holothurin A]
postprandial blood glucose levels [6]: suppressed postprandial blood glucose levels | α-glucosidase activity [7]: inhibited
